According to patent US20220110902A1, “Methods of treating amyloid-beta peptide diseases” (Ecole Polytechnique Federale de Lausanne, priority 2016, published 2022):
“Also recorded” adds a separate entry of the source.

Key:
Type in all cases: in vivo, C. elegans
CL2122 worms [1] = experiment: Transcript analysis of the MSR in CL2122 control worms; conditions: CL2122, day 1 of adulthood; dox 15 μg/mL, NR 1 mM, AZD 0.3 μM
Experimental: C. elegans: A total of ˜3000 worms per condition, divided in 3 biological replicates, was recovered in M9 buffer from NGM plates and lysed in the TriPure RNA reagent. Each experiment was repeated twice. Total RNA was transcribed to cDNA using QuantiTect Reverse Transcription Kit (Qiagen). Expression of selected genes was analyzed using the LightCycler480 system (Roche) and LightCycler® 480 SYBR Green I Master reagent (Roche). For C. elegans, 2 housekeeping genes were used to normalize the expression data, namely actin (act-1) and peroxisomal membrane protein 3 (pmp-3).
atfs-1p::atfs-1 expression vector was created by amplifying 1488 bp sequence upstream from the transcription start site of atfs-1 coding region by using worm genomic DNA for the promoter region. […] The correctness of the atfs-1p::atfs-1 construct was assessed by sequencing with the indicated pPD30.38 and atfs-1 seq. primers. Two independent GMC101 lines (AUW9 and AUW10), and one CL2122 strain (AUW11) carrying atfs-1p::atfs-1 transgene as extrachromosomal array were analyzed in the study. […] The deriving F1 worms were shifted from 20° C. to 25° C. at the L4 stage to induce amyloid accumulation and paralysis, and phenotypes assessed over time as indicated. […]

GMC101 worms = experiment: Worm phenotypic assays in GMC101: mobility, paralysis and death score; conditions: for fitness/healthspan and lifespan (mobility, paralysis, death): GMC101, mobility from day 1 of adulthood, paralysis and death at day 8, dox 15 μg/mL, AZD 300 nM
Experimental: (§1) Doxycycline was obtained from Sigma-Aldrich and dissolved in water. For experiments, a final concentration of 15 μg/mL was used. Olaparib (AZD2281) was dissolved in DMSO to experimental concentrations of 300 nM. Nicotinamide Riboside triflate (NR) was custom synthesized by Novalix (www.novalix-pharma.com/) and dissolved in water, and used at a final concentration of 1 mM. Compounds were added just before pouring the plates. For phenotyping experiments, parental F0 L4 worms were allowed to reach adulthood and lay eggs on the treatment plates. The deriving F1 worms were therefore exposed to compounds during the full life from eggs until death. For RNA analysis experiments, synchronized L1 worms were exposed to the compounds until harvest. To ensure a permanent exposure to the compound, plates were changed twice a week.
(§2) Mobility: C. elegans movement analysis was performed as described, starting from day 1 of adulthood, using the Movement Tracker software. The experiments were repeated at least twice.
Paralysis and death score: 5 L4 worms per condition were allowed to reach adulthood and lay eggs on the treatment plates. 45 to 60 deriving F1 worms per condition were manually scored for paralysis after poking, as already described. Worms that were unable to respond to any, repeated stimulation, were scored as dead. Results are representative of the data obtained in at least three independent experiments.
(§3) During the assays, animals were exposed to Myriocin (dissolved in DMSO) from the egg stage on plates seeded with live HT115 E. coli bacteria. Control plates seeded with the same bacteria were prepared with the corresponding concentrations of DMSO. The day of the experiment (day 1 of adulthood, 3 days after hatching), the GMC101 population was shifted to 25° C. in order to induce the amyloid deposition in the body wall muscle. ˜1000 worms were used for western blotting assays.
C. elegans movement analysis was performed as described (Mouchiroud et al., 2016), using the Movement Tracker software. ˜50 adult worms were used per condition for movement assays.
To score for paralysis and death, 50 worms per condition were manually scored after poking as described (McCool et al., 2012; Florez-McClure et al., 2007). Worms that were unable to respond to repeated stimulation were scored as dead.
as §3, with “the compound UA” for “Myriocin (dissolved in DMSO)”, “from” for “from the”, “DMSO (0.1%).” for “DMSO.”, “˜50 adult” for “˜1000”, “per conditions.” for “for western blotting assays.”
C. elegans movement analysis was performed as described in (Mouchiroud et al., 2016), using the Movement Tracker software within a period of 4 days.

CL2122 worms [2] = experiment: Mobility of CL2122 control worms; conditions: CL2122, day 1 to 4 and day 8 of adulthood; NR 1 mM, AZD 0.3 μM
Experimental: as §1, §2

SMILES | MSR transcripts in control strain (CL2122 worms [1]) | fitness/healthspan and lifespan (mobility, paralysis, death) (GMC101 worms; NR 1 mM) | fitness (mobility) of control strain (CL2122 worms [2]) | health- and life-span upon sir-2.1 RNAi (GMC101 worms; GMC101 fed with sir-2.1 RNAi, NR 1 mM) | dependence of motility and Aβ clearance benefits on atfs-1 (GMC101 worms; GMC101 upon atfs-1 RNAi feeding) | dependence of health-, lifespan and proteostasis benefits on dct-1 (GMC101 worms; GMC101 upon dct-1 RNAi feeding) | paralysis and death (survival) (GMC101 worms; GMC101, day 4 of adulthood, Myriocin 10 uM) | spontaneous movement (mobility) (GMC101 worms; GMC101, period of 4 days, Myriocin 10 uM)
O=C(c1cc(Cc2n[nH]c(=O)c3ccccc23)ccc1F)N1CCN(C(=O)C2CC2)CC1 [AZD, Olaparib, reference compound] | induction of the MSR was also consistently observed | improved healthspan and lifespan | only improved CL2122 fitness during aging | – | – | – | – | –
NC(=O)c1ccc[n+]([C@@H]2O[C@H](CO)[C@@H](O)[C@H]2O)c1 [NR, Nicotinamide Riboside triflate] | induction of the MSR was also consistently observed | improved healthspan and lifespan | only improved CL2122 fitness during aging | still significantly rescued health- and life-span | required | required | – | –
CCCCCCC(=O)CCCCCC/C=C/C[C@@H](O)[C@H](O)[C@@](N)(CO)C(=O)O [Myriocin, (E,2S,3R,4R)-2-amino-3,4-dihydroxy-2-(hydroxymethyl)-14-oxoicos-6-enoic acid] | – | – | – | – | – | – | decreased both paralysis and death; also recorded: improves the paralysis score and survival | increased the mobility; also recorded: increase in spontaneous movement
